Experimental data as given in article PMC3440348, “Identification of Novel Human Dipeptidyl Peptidase-IV Inhibitors of Natural Origin (Part I): Virtual Screening and Activity Assays” (PLoS ONE, 2012).

Target: T1, DPP-IV (dipeptidyl peptidase-IV) (Homo sapiens, UniProt P27487)
T1 construct: gene DPP4; commercial recombinant human DPP-IV
Experiment: fluorimetric DPP-IV inhibition assay (H-Gly-Pro-AMC), dose-response
Format: biochemical

T1 sequence (P27487 39-766): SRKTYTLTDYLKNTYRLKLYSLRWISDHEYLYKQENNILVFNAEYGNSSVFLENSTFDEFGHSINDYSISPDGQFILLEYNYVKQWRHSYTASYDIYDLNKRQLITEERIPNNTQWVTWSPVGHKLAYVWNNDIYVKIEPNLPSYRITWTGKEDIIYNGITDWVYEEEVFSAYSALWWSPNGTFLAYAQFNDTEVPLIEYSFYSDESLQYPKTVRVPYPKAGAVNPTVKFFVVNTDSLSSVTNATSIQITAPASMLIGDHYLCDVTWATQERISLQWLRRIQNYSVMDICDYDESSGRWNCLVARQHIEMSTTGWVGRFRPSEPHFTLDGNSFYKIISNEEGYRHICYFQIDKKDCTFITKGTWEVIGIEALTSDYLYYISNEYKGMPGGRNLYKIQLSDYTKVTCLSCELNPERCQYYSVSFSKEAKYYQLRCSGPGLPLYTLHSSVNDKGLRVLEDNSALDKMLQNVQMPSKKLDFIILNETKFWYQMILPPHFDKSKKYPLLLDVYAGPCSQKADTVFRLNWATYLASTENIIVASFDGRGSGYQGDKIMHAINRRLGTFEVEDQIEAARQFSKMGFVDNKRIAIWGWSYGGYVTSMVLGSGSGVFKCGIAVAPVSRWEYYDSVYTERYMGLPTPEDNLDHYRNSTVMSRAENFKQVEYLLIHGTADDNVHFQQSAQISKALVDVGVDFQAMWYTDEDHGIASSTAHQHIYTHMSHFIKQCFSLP

CCCCN(C)Cc1c(O)ccc2c(-c3cc4ccccc4oc3=O)cc(=O)oc12 [C5, ZINC02132035]
IC50: 61.6 µM
